Assay [1] relates to PC1.0 cells. The assay is classed as in vivo. The following applies: day 15 post-cell implantation; 25 to 50 μg expression vector intra-tumoral; gemcitabine i.p. 80 to 120 mg/kg/day every three days.
Assay [2] deals with PC1.0 cells. Set-up: species or system Syrian golden hamsters. The following applies: hamster, in vivo, ip, 120 mg/kg/day.

The structures appear in SMILES notation.

In the case of `Cl.Nc1ccn([C@@H]2O[C@H](CO)[C@@H](O)C2(F)F)c(=O)n1` [Gemcitabine, No DNA, 2′-deoxy-2′,2′-difluorocytidine monohydrochloride], in the assay with PC1.0 cells [1], the “Tumor progression (percentage)” value is given as “+150 to 378 percentage”. Besides, the “tumor evolution on day 15” value with PC1.0 cells [2] is listed as “only slow down the tumor progression”.

The record behind these values is patent US9364494B2, “Somatostatin 2 receptor (sst2), deoxycytidine kinase (dck) and uridine monophosphate kinase (umk) pancreatic gene therapy” (Institut National de la Sante et de la Recherche Medicale …, priority 2007, dated 2016).
